Experimental data reported in publication PMC9116245, “New 1,2,3-triazole linked ciprofloxacin-chalcones induce DNA damage by inhibiting human topoisomerase I& II and tubulin polymerization” (Journal of Enzyme Inhibition and Medicinal Chemistry, 2022).

Legend:
Assay type in all cases: cell-based
[1] = system: 59 human cancer cell lines; test: NCI one-dose screen, whole panel; settings: Homo sapiens, mean over the panel, read-out: Mean Growth Percent
In short: (§1)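 In vitro growth inhibition screen by the National Cancer Institute; compound concentration fixed at 10 µM; panel of 59 human tumour cell lines. Results given as percent growth.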

HT-29 = test: MTT assay; settings: Homo sapiens; HT-29, MTT assay, 24 h incubation
In short: (§2)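 Colorectal lines treated with 1, 5, 10, 20, 40, 80 or 100 µM compound, or DMSO vehicle. Proliferation read by MTT reduction.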

Caco-2 = test: MTT assay; settings: Homo sapiens; Caco-2, MTT assay, 24 h incubation
In short: as §2

HCT116 = test: MTT assay; settings: Homo sapiens, HCT-116, 24 h incubation
In short: as §2

SF-539 = test: NCI one-dose screen; settings: Homo sapiens; SF-539, 10 µM; read-out: Growth Percent
In short: as §1

A498 = test: NCI one-dose screen; settings: Homo sapiens; A498, 10 µM; read-out: Growth Percent
In short: as §1

NCI-H226 = test: NCI one-dose screen; settings: Homo sapiens; NCI-H226, 10 µM; read-out: Growth Percent
In short: as §1

LOX IMVI = test: NCI one-dose screen; settings: Homo sapiens, read-out: Growth Percent
In short: as §1

SN12C = test: NCI one-dose screen; settings: Homo sapiens, read-out: Growth Percent
In short: as §1

MDA-MB-435 = test: NCI one-dose screen; settings: Homo sapiens; MDA-MB-435, 10 µM; read-out: Growth Percent
In short: as §1

NCI-H23 = test: NCI one-dose screen; settings: Homo sapiens; NCI-H23, 10 µM; read-out: Growth Percent
In short: as §1

A549/ATCC = test: NCI one-dose screen; settings: Homo sapiens, read-out: Growth Percent
In short: as §1

U251 = test: NCI one-dose screen; settings: Homo sapiens, U-251; U251, 10 µM; read-out: Growth Percent
In short: as §1

NCI-H522 = test: NCI one-dose screen; settings: Homo sapiens; NCI-H522, 10 µM; read-out: Growth Percent
In short: as §1

UACC-257 = test: NCI one-dose screen; settings: Homo sapiens; UACC-257, 10 µM; read-out: Growth Percent
In short: as §1

SW-620 = test: NCI one-dose screen; settings: Homo sapiens; SW-620, 10 µM; read-out: Growth Percent
In short: as §1

DU-145 = test: NCI one-dose screen; settings: Homo sapiens; DU-145, 10 µM; read-out: Growth Percent
In short: as §1

OVCAR-3 = test: NCI one-dose screen; settings: Homo sapiens; OVCAR-3, 10 µM; read-out: Growth Percent
In short: as §1

MDA-MB-468 = test: NCI one-dose screen; settings: Homo sapiens; MDA-MB-468, 10 µM; read-out: Growth Percent
In short: as §1

HCT-15 = test: NCI one-dose screen; settings: Homo sapiens; HCT-15, 10 µM; read-out: Growth Percent
In short: as §1

MOLT-4 = test: NCI one-dose screen; settings: Homo sapiens; MOLT-4, 10 µM; read-out: Growth Percent
In short: as §1

M14 = test: NCI one-dose screen; settings: Homo sapiens; M14, 10 µM; read-out: Growth Percent
In short: as §1

MCF7 = test: NCI one-dose screen; settings: Homo sapiens; MCF7, 10 µM; read-out: Growth Percent
In short: as §1

SF-295 = test: NCI one-dose screen; settings: Homo sapiens; SF-295, 10 µM; read-out: Growth Percent
In short: as §1

SR = test: NCI one-dose screen; settings: Homo sapiens, read-out: Growth Percent
In short: as §1

SK-MEL-28 = test: NCI one-dose screen; settings: Homo sapiens; SK-MEL-28, 10 µM; read-out: Growth Percent
In short: as §1

CCRF-CEM = test: NCI one-dose screen; settings: Homo sapiens, read-out: Growth Percent
In short: as §1

OVCAR-8 = test: NCI one-dose screen; settings: Homo sapiens; OVCAR-8, 10 µM; read-out: Growth Percent
In short: as §1

NCI-H460 = test: NCI one-dose screen; settings: Homo sapiens; NCI-H460, 10 µM; read-out: Growth Percent
In short: as §1

SF-268 = test: NCI one-dose screen; settings: Homo sapiens; SF-268, 10 µM; read-out: Growth Percent
In short: as §1

KM12 = test: NCI one-dose screen; settings: Homo sapiens; KM12, 10 µM; read-out: Growth Percent
In short: as §1

HT29 = test: NCI one-dose screen; settings: Homo sapiens, HT-29; HT29, 10 µM; read-out: Growth Percent
In short: as §1

SNB-75 = test: NCI one-dose screen; settings: Homo sapiens; SNB-75, 10 µM; read-out: Growth Percent
In short: as §1

ACHN = test: NCI one-dose screen; settings: Homo sapiens, read-out: Growth Percent
In short: as §1

HCC-2998 = test: NCI one-dose screen; settings: Homo sapiens; HCC-2998, 10 µM; read-out: Growth Percent
In short: as §1

EKVX = test: NCI one-dose screen; settings: Homo sapiens, read-out: Growth Percent
In short: as §1

COc1ccc(/C=C/C(=O)c2ccc(-n3cc(CN4CCN(c5cc6c(cc5F)c(=O)c(C(=O)O)cn6C5CC5)CC4)nn3)cc2)cc1OC [Compound 4i, (E)-1-cyclopropyl-7-(4-((1-(4-(3–(3,4-dimethoxyphenyl)acryloyl)phenyl)-1H-1,2,3-triazol-4-yl)methyl)piperazin-1-yl)-6-fluoro-4-oxo-1,4-dihydroquinoline-3-carboxylic acid] showed an activity at 10 µM [1] of 59.5%, an IC50 (HT-29) of 18.6 ± 3.19 µM and an IC50 (Caco-2) of 11.3 ± 2.39 µM. For the same compound, the IC50 (HCT116) was 4.87 ± 0.78 µM, the activity at 10 µM (SF-539) was 50.8% and the activity at 10 µM (A498) was 68.2%. It also gave an activity at 10 µM (NCI-H226) of 67.3%, an activity at 10 µM (LOX IMVI) of 27.9% and an activity at 10 µM (SN12C) of 32.6%. For the same compound, the activity at 10 µM (MDA-MB-435) was 22.2%, the activity at 10 µM (NCI-H23) was 78.7% and the activity at 10 µM (A549/ATCC) was 66.1%. The activity at 10 µM (U251) was 41.4%, the activity at 10 µM (NCI-H522) was 67.6% and the activity at 10 µM (UACC-257) was 78.7%. The activity at 10 µM (SW-620) was 32.8%, the activity at 10 µM (DU-145) was 83.2% and the activity at 10 µM (OVCAR-3) was 39.3%. It also gave an activity at 10 µM (MDA-MB-468) of 26.3%, an activity at 10 µM (HCT-15) of 80.6% and an activity at 10 µM (MOLT-4) of 64.2%. The activity at 10 µM (M14) was 59%, the activity at 10 µM (MCF7) was 13.2% and the activity at 10 µM (SF-295) was 94.9%. The activity at 10 µM (SR) was -2.25%, the activity at 10 µM (SK-MEL-28) was 79.8% and the activity at 10 µM (CCRF-CEM) was 44%. The activity at 10 µM (OVCAR-8) was 67.4%, the activity at 10 µM (NCI-H460) was 77.9% and the activity at 10 µM (SF-268) was 56%. The activity at 10 µM (KM12) was 42.6%, the activity at 10 µM (HT29) was 29.6% and the activity at 10 µM (SNB-75) was 58.3%. For the same compound, the activity at 10 µM (ACHN) was 85%, the activity at 10 µM (HCC-2998) was 44% and the activity at 10 µM (EKVX) was 96.6%.
Work on O=C(/C=C/c1ccc(F)cc1)c1ccc(-n2cc(CN3CCN(c4cc5c(cc4F)c(=O)c(C(=O)O)cn5C4CC4)CC3)nn2)cc1 [Compound 4e, (E)-1-cyclopropyl-6-fluoro-7–(4-((1–(4-(3-(4-fluorophenyl)acryloyl)phenyl)-1H-1,2,3-triazol-4-yl)methyl)piperazin-1-yl)-4-oxo-1,4-dihydroquinoline-3-carboxylic acid] yielded an activity at 10 µM [1] of 53.9%, an IC50 (HT-29) of 8.67 ± 2.94 µM and an IC50 (Caco-2) of 4.19 ± 1.13 µM. The IC50 (HCT116) was 4.32 ± 0.98 µM, the activity at 10 µM (SF-539) was 27.9% and the activity at 10 µM (A498) was 61.1%. The activity at 10 µM (NCI-H226) was 81.7%, the activity at 10 µM (LOX IMVI) was 20.3% and the activity at 10 µM (SN12C) was 8.77%. It also gave an activity at 10 µM (MDA-MB-435) of 64.7%, an activity at 10 µM (NCI-H23) of 80.3% and an activity at 10 µM (A549/ATCC) of 82.2%. It also gave an activity at 10 µM (U251) of 16.6%, an activity at 10 µM (NCI-H522) of 48.5% and an activity at 10 µM (UACC-257) of 88.3%. For the same compound, the activity at 10 µM (SW-620) was 43.2%, the activity at 10 µM (DU-145) was 51.6% and the activity at 10 µM (OVCAR-3) was 46.6%. For the same compound, the activity at 10 µM (MDA-MB-468) was 32.9%, the activity at 10 µM (HCT-15) was 63.4% and the activity at 10 µM (MOLT-4) was 31.8%. It also gave an activity at 10 µM (M14) of 60.9%, an activity at 10 µM (MCF7) of 24.2% and an activity at 10 µM (SF-295) of 81.2%. It also gave an activity at 10 µM (SR) of 7.11%, an activity at 10 µM (SK-MEL-28) of 68% and an activity at 10 µM (CCRF-CEM) of 20%. The activity at 10 µM (OVCAR-8) was 23.3%, the activity at 10 µM (NCI-H460) was 32.5% and the activity at 10 µM (SF-268) was 35.7%. For the same compound, the activity at 10 µM (KM12) was 32.9%, the activity at 10 µM (HT29) was 28% and the activity at 10 µM (SNB-75) was 68.1%. The activity at 10 µM (ACHN) was 88.5%, the activity at 10 µM (HCC-2998) was 79.3% and the activity at 10 µM (EKVX) was 87.5%.
